Like-named read-outs stand apart in the source and are kept apart here.
Key:
[1] = Influence on bile secretion (choleresis) of the narcotized rat; assay type: in vivo, rat (male Sprague-Dawley); settings: in vivo; LD50 mouse i.p. / ED50 rat i.d.; Table II; read-out: TQ (LD50/ED50), bile secretion
Description: (§1) Male Sprague-Dawley rats (body weight from 250 to 300 g) are narcotized with 1.2 g/kg urethane i.m. Then the abdominal cavity is opened medially, the bile duct is ligatured shortly above the place where it leads into the duodenum and also near to the hepatic duct, and both sections are catheterized towards the liver.
(§2) As in the rat all the pancreatic ducts lead out into the central section of the bile duct; it is possible in this way to discharge the pancreatic secretion separately from the distal (ligatured) section and the bile separately from the proximal section of the bile duct.
(§3) The quantities of pancreatic juice and bile juice obtained are measured at intervals of 30 minutes over a period from 2 hours before to 3 hours after the intraduodenal (V. jugularis externa) administration of the compounds to be tested (quantity of liquid administered 5 ml/kg).
(§4) The body temperature of the animals is maintained at 36° to 38° C. by means of electric blankets and radiation; the temperature is monitored rectally.
(§5) The liquid volumes of the 30-minute fractions after the administration of the substance are related in each case to the quantity of bile or pancreatic juice secreted prior to the application of the substance (=100%, mean of the last two measurements). The maximum percentage increase in the pancreatic or bile secretion is represented in dependence upon dose, and from this the ED50 is determined by interpolation.

bile secretion = experiment: as above; assay type: in vivo, rat (male Sprague-Dawley); settings: 0.5 h; narcotized rat, i.d.; liquid volume, 30 min fraction; Table II; read-out: ED50 bile secretion (dose which brings about an increase in the bile secretion by a maximum of 50%)
Description: as §1, §2, §3, §4, §5

[2] = Antihepatotoxic effect: duration of hexobarbital sleep of the rat after liver damage by CCl4; settings: rat, in vivo
Description: (§6) The compounds to be tested are administered 1 hour prior to the administration of CCl4 orally in a liquid volume of 10 ml/kg.
(§7) The antihepatotoxic effect of the compounds to be tested (sodium salts in aqueous solution) is determined by the reduction of the prolongation of sleeping period caused by the CCl4 liver cell damage in the groups treated, as compared with the prolongation of the sleeping period of the CCl4 control group (=100%). […]

liver damage by CCl4 = experiment: as above; settings: Rattus norvegicus, po
Description: as §6, §7

[3] = Determination of toxicity (lethal action on the mouse after intraperitoneal application); assay type: in vivo; settings: in vivo, ip
Description: (§8) The toxicity investigations are carried out on female NMRI mice (body weight 22 to 26 g). The animals (5 animals per dose) are given food and water ad lib. Different doses of the substances are administered intraperitoneally. The duration of observation is 14 days. The LD50, i.e. the dose at which 50% of the animals die, is determined graphically from the dose/effect curve.

mouse = experiment: as above; assay type: in vivo; settings: 20160 min
Description: as §8

[4] = Influence on pancreatic secretion of the narcotized rat; assay type: in vivo, rat (male Sprague-Dawley); settings: in vivo, LD50 mouse i.p. / ED50 rat i.d.
pancreatic secretion = experiment: as above; assay type: in vivo, rat (male Sprague-Dawley); settings: 0.5 h, narcotized rat, i.d., liquid volume
[5] = Antiulcerogenic (stomach-protective) action, pylorus ligature and acetylsalicylic acid; assay type: in vivo, rat (female); settings: in vivo; LD50 mouse i.p. / ED50 rat i.d.; Table IV; read-out: TQ (LD50/ED50), antiulcerogenic action
Description: (§9) The ulcer provocation is carried out on rats which have been made to fast for 24 hours (female, 180 to 200 g) by ligature of the pylorus (under ether narcosis) and the oral application of 100 mg/10 ml/kg acetylsalicylic acid. The administration of the substances was carried out intraduodenally (2.5 ml/kg) immediately after the ligature of the pylorus. The closure of the wound was carried out by means of Michel clamps. 4 hours after this, the animals were autopsied (while inebriated with ether) by dislocation of the atlas, and the stomach was resected. The stomach, opened longitudinally, is fixed on a cork board and, using a stereomicroscope with an enlargement of 10×, the number and size (=diameter) of any ulcers present were determined. The product of the degree of severity (according to the following scale of points) and the number of ulcers was used as the individual ulcer index.
(§10) As a measure of antiulcerogenic effect the reduction in the mean ulcer index of each treated group, as compared with that of the control group (=100%), was used.

stomach ulcer = experiment: as above; assay type: in vivo, rat (female); settings: 4 h; rat, intraduodenally; Table IV; read-out: ED50 antiulcerogenic action (dose which reduces the mean ulcer index by 50%)
Description: as §9, §10

[6] = tested on: glucose formation from lactate and pyruvate in isolated perfused liver; experiment: Inhibition of the formation of glucose from lactate and pyruvate in the isolated perfused rat liver; parameters: species or system rat (male Sprague-Dawley); settings: Table XIII
Description: For this purpose young male Sprague-Dawley rats (160 to 200 g) are used. The rats are kept in cages of up to 5 animals in a temperature-controlled room (23° C.) with a fixed day/night rhythm (12/12 hours).
Food is withheld from the animals for from 20 to 22 hours prior to the operation. They are allowed to take water ad lib. The operation and the perfusion of the liver are carried out using the technique of R. Scholz et al. [Eur. J. Biochem. 38 (1973) 64 to 72]. The perfusion liquid used is Krebs-Henseleit bicarbonate buffer (pH 7.4), which is saturated with an oxygen/carbon dioxide mixture (95/5) and contains 1.6 mmol/liter of L-lactate and 0.2 mmol/liter of pyruvate. The perfusion liquid is pumped into the liver via a cannula inserted into the portal vein. The effluent perfusion liquid is collected via a cannula inserted into the Vena cava. The liver is perfused for about 2 hours. The test compounds are infused for 16 minutes each from the 32nd to the […] after the perfusion in increasing concentrations (0.02 to 1.00 mmol/liter).
Samples of the effluent perfusion liquid are collected at one-minute intervals and analyzed for glucose, lactate and pyruvate (using standard enzymatic methods). The percentages shown in Table VIII relate to the condition occurring before and after the administration of the compounds, the changes caused solely by lactate and pyruvate being set as being equal to 100%.

C#CC(C)(C)N(CCCC(=O)O)C(=O)c1ccc(Cl)cc1 [Serial No. 3, N-(p-chloro)benzoyl-4-[(2-methyl-3-butyn-2-yl)amino]butyric acid]
selectivity ratio [1]: > 40
ED50 (bile secretion): 25 mg/kg
selectivity ratio ([2]; TQ (LD50/ED50), antihepatotoxic effect, LD50 mouse i.p. / ED50 rat p.o., Table III): > 10
ED50 (liver damage by CCl4; read-out: ED50 antihepatotoxic effect (dose which shortens the hexobarbital narcosis by 50%)): 100 mg/kg
LD50 at 336 h ([3]; mouse, Table II): > 1000 mg/kg
LD50 (mouse; mouse, i.p., Table III): > 1000 mg/kg

COc1ccc(Cl)cc1C(=O)N(CCCCCC(=O)O)c1ccccc1-c1ccccc1 [Serial No. 30, 6-[5-chloro-2-methoxy-N-(biphenyl-2-yl)benzamido]caproic acid]
selectivity ratio ([4]; Table VII, read-out: TQ [LD50/ED50], pancreatic secretion): > 200
ED50 (pancreatic secretion; 30 min fraction, Table VII, read-out: ED50 pancreatic secretion (dose which brings about an increase in pancreatic secretion of a maximum of 50%)): < 1 mg/kg
selectivity ratio ([2]; TQ LD50/ED25, antihepatotoxic effect, LD50 mouse i.p. / ED25 rat p.o., Table V): > 20
ED25 (liver damage by CCl4; read-out: ED25 antihepatotoxic effect (shortens hexobarbital narcosis by 25%)): 10 mg/kg
LD50 at 336 h ([3]; mouse, Table IV): > 200 mg/kg
LD50 (mouse; mouse i.p., Table V): > 200 mg/kg
LD50 (mouse; mouse i.p., Table VII): > 200 mg/kg
selectivity ratio [5]: > 20
ED50 (stomach ulcer): 10 mg/kg

CC(C)C(=O)N(CCCC(=O)O)C1CCCc2ccccc21 (stereo not drawn) [Serial No. 50, 4-[N-(1,2,3,4-tetrahydro-1-naphthyl)isobutyramido]butyric acid]
selectivity ratio ([4]; Table X, read-out: TQ LD50/ED50, pancreatic secretion): ≥ 66.7
ED50 (pancreatic secretion; 30 minute fraction, Table X, read-out: ED50 pancreatic secretion (dose which brings about an increase in pancreatic secretion by a maximum of 50%)): ~3 mg/kg
LD50 at 336 h ([3]; mouse i.p., Table X): > 200 mg/kg
LD50 (i.p.) (mouse; mouse, i.p., Table XIII): > 200 mg/kg
Glucose formation, % change ([6]; 0.2 mmol/liter in the perfusate, isolated perfused liver of fasting rats): -33%
ED50 inhibition of formation of glucose from lactate and pyruvate ([6]; from 4 concentrations, 0.02 to 1.00 mmol/liter): 97 µg/mL
